These results are taken from patent US8134015B2, “Compound inhibiting in vivo phosphorous transport and medicine containing the same” (Kyowa Hakko Kirin Co., Ltd., priority 2003, dated 2012).

The structures appear in SMILES notation.

One assay has as its target T1, rat NaPi-2b (Rattus norvegicus, UniProt Q9JJ09).
T1 construct: expressed in transfected cells; host or cells: Xenopus oocytes injected with cRNA
T1 sequence (Q9JJ09 1-695): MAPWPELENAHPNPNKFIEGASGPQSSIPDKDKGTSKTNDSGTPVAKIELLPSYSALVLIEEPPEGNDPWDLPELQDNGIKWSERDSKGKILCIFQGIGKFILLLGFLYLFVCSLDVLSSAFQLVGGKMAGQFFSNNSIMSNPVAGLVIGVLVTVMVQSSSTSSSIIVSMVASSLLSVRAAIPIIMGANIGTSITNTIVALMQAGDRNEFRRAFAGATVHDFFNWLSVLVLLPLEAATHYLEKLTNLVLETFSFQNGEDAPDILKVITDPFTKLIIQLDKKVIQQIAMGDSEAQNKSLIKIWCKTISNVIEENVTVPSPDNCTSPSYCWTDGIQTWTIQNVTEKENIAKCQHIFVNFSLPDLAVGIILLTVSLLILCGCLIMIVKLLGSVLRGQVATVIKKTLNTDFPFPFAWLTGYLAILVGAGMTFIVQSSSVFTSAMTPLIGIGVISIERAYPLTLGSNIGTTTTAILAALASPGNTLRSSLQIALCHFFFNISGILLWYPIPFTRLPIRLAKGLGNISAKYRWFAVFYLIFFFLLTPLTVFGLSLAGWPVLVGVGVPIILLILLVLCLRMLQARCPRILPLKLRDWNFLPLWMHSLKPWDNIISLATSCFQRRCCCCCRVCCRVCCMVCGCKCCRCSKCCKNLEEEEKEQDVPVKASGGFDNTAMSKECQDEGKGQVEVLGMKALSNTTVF
The assay can be described thus: Sodium-dependent phosphate uptake of Xenopus oocytes which expressed NaPi-2b (32P). Format: cell-based. The following applies: Xenopus oocytes expressing rat NaPi-2b, 32P radioactive phosphorus; read-out: IC50 (phosphate uptake inhibitory activity). The procedure, abridged:
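Read-out is 32P phosphate uptake into Xenopus oocytes expressing rat intestinal NaPi-2b (cRNA injection, 2-day culture). Inhibition at 300 μM and 100 μM was derived from a single inhibition curve and given as percent.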
The term IC50 denotes the point on the concentration scale where inhibition reaches its midpoint. `Cc1ccc(/C=N/NC(=O)c2cc(I)ccc2NC(=O)c2cccc(CN3CCC(N4CCCCC4)CC3)c2)cc1C` [Compound 486, 3-[1,4′]Bipiperidinyl-1′-ylmethyl-N-[2-(3,4-dimethyl-benzylidene-hydrazinocarbonyl)-4-iodo-phenyl]-benzamide]: the IC50 was under 3 µM. Turning to `Cc1ccc(/C=N/n2c(-c3cccc(CSCCO)c3)nc3ccc(Br)cc3c2=O)cc1` [Compound 696, 6-Bromo-2-[3-(2-hydroxy-ethylsulfanylmethyl)-phenyl]-3-[(4-methyl-benzylidene-)-amino]-3H-quinazolin-4-one], the half-maximal inhibitory concentration (IC50) was 4.47 µM. For the compound `O=C(Nc1ccccc1C(=O)N/N=C/c1ccc(F)cc1)c1ccc(F)cc1` [Compound 77, 4-Fluoro-N-[2-(4-fluoro-benzylidene-hydrazinocarbonyl)-phenyl]-benzamide], the IC50 was determined as 3.01 µM.

Regarding `COc1ccc(C(=O)Nc2scc(C)c2C(=O)N/N=C/c2ccc(C)cc2)cc1OC` [Compound 519, 3,4-Dimethoxy-N-[4-methyl-3-(4-methyl-benzylidene-hydrazinocarbonyl)-thiophen-2-yl]-benzamide], the IC50 stood at 1.72 µM. Turning to `COc1cc(OC)cc(C(=O)Nc2ccc(Br)cc2C(=O)N/N=C/c2cccc(F)c2)c1` [Compound 114, N-[4-Bromo-2-(3-fluoro-benzylidene-hydrazinocarbonyl)-phenyl]-3,5-dimethoxy-benzamide], the IC50 worked out at 2.55 µM. Consider `O=C(Nc1ccccc1C(=O)N/N=C/c1cccc(F)c1)c1cccc(F)c1` [Compound 81, 3-Fluoro-N-[2-(3-fluoro-benzylidene-hydrazinocarbonyl)-phenyl]-benzamide], for which the IC50 stood at 5.65 µM. As to `Cc1ccc(/C=N/NC(=O)c2c(C)csc2NC(=O)c2cccc(CN(C)C)c2)cc1` [Compound 823, 3-Dimethylaminomethyl-N-[4-methyl-3-(4-methyl-benzylidene-hydrazinocarbonyl)-thiophen-2-yl]-benzamide], the half-maximal inhibitory concentration (IC50) is 6.93 µM. `CCN1CC(NCc2ccc(C(=O)Nc3ccc(Br)cc3C(=O)N/N=C/c3ccc(Cl)c(C(F)(F)F)c3)cc2)CN1CC` [Compound 754, N-[4-Bromo-2-(4-chloro-3-trifluoromethyl-benzylidene-hydrazinocarbonyl)-phenyl]-4-[(1,2-diethyl-pyrazolidin-4-ylamino)-methyl]-benzamide]: the IC50 is under 3 µM.

Take `Cc1ccc(/C=N/NC(=O)c2cc3ccccc3cc2NC(=O)c2cccc(CN3CCN(CCO)CC3)c2)cc1` [Compound 970, 3-[4-(2-Hydroxy-ethyl)-piperazin-1-ylmethyl]-N-[3-(4-methyl-benzylidene-hydrazinocarbonyl)-naphthalen-2-yl]-benzamide]: the IC50 is under 3 µM. `C/C(=N\NC(=O)c1cc(Br)ccc1NC(=O)c1cccnc1)c1cccc(C)c1` [Compound 215, N-[4-Bromo-2-(1-m-toluyl-ethylidene-hydrazinocarbonyl)-phenyl]-nicotinamide]: the 50% inhibitory concentration (IC50) is under 3 µM. For `O=C(Nc1ccc(Cl)cc1C(=O)N/N=C/c1ccc(O)cc1)c1cccc(CN(CCO)CCO)c1` [Compound 411, 3-{[Bis-(2-hydroxy-ethyl)-amino]-methyl}-N-[4-chloro-2-(4-hydroxy-benzylidene-hydrazinocarbonyl)-phenyl]-benzamide], the IC50 was found to be 10.1 µM.

The same assay, now with this note: phosphate uptake, oocytes expressing rat NaPi-2b; 300 μM, determined from inhibition curve.
In general, inhibition refers to the drop in the measured response relative to a control, in per cent. `Cc1ccc(/C=N/NC(=O)c2sc(C(C)(C)C)cc2NC(=O)c2cccc(CN3CCN(CCO)CC3)c2)cc1C` [Compound 991, N-[5-Tert-butyl-2-(3,4-dimethyl-benzylidene-hydrazinocarbonyl)-thiophen-3-yl]-3-[4-(2-hydroxy-ethyl)-piperazin-1-ylmethyl]-benzamide] registered an inhibition at 300 µM of 30.1%. With `COc1ccc(C(=O)Nc2sc(C)cc2C(=O)N/N=C/c2ccc(Cl)c(C(F)(F)F)c2)cc1OC` [Compound 955, N-[3-(4-Chloro-3-trifluoromethyl-benzylidene-hydrazinocarbonyl)-5-methyl-thiophen-2-yl]-3,4-dimethoxy-benzamide], the inhibition at 300 µM turned out to be 57.7%.
